According to ChEMBL document CHEMBL1201862, “PubChem BioAssay data set” (2004):
Calls of active or inactive are those of the source.

Key:
cells [1] = format: functional, cell-based
[2] = biological target: T1, Trace amine-associated receptor 1 (Homo sapiens, UniProt Q96RJ0); test: Fluorescence-based cell-based high throughput dose response assay to identify agonists of the human trace amine associated receptor 1 (TAAR1).; format: functional
T1 sequence (Q96RJ0 whole entry): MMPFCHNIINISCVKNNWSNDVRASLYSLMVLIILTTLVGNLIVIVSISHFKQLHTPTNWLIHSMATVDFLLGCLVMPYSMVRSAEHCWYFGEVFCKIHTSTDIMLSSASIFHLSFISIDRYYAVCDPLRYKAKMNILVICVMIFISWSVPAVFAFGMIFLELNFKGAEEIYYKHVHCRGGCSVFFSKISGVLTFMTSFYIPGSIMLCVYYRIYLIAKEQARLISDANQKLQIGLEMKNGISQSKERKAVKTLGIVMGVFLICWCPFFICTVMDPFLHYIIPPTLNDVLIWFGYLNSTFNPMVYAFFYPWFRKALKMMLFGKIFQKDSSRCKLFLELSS

[3] = biological target: T2, Heat shock factor protein 1 (Mus musculus, UniProt P38532); test: enhancement of HSF1-driven luciferase signal – cell-based, NIH3T3, luminescence, dose retest, confirmation (AID 435004); format: functional;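 note: stress induced by proteasome inhibitor MG132 added 30 min after compound; luciferase reporter driven by HSF1 response element in NIH3T3 cells; actives raise luminescence as potentiators of the MG132 stress response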
T2 sequence (P38532 whole entry): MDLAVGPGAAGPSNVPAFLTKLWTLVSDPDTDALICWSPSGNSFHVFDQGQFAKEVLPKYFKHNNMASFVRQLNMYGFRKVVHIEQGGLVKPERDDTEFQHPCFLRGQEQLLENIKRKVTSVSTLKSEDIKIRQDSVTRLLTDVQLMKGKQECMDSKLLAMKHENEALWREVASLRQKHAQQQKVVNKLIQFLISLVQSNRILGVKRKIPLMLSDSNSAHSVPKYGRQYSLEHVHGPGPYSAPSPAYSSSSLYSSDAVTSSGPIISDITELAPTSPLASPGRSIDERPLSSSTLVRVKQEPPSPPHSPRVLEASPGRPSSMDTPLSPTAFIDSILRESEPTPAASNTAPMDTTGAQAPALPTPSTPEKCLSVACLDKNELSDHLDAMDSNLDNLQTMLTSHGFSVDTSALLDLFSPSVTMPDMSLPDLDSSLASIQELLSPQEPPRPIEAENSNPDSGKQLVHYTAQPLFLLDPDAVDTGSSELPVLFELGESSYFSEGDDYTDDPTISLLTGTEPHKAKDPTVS

[4] = biological target: T1, Trace amine-associated receptor 1; test: Counterscreen for agonists of the human trace amine associated receptor 1 (hTAAR1): Fluorescence-based cell-based high throughput dose response assay to identify hTAAR1 agonist that also desensitize TAAR1 receptor response.; format: functional
cells [5] = format: functional, cell-based; remark: listed apart in the source
Vero = test: viability loss in Vero cells – cell-based, plate reader, cherry-pick samples, cytotoxicity control, dose response (AID 687020); format: functional; conditions: Chlorocebus sabaeus
Streptokinase A = biological target: T3, Streptokinase A (Streptococcus pyogenes serotype M1, UniProt P10520); test: viability-normalized secreted streptokinase activity reduction – plasminogen activation absorbance, OD405, dose response (AID 1914); format: functional, Streptococcus pyogenes M1 GAS;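 note: secreted streptokinase activity via plasminogen activation per viability signal from cell pellet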
T3 sequence (P10520 whole entry): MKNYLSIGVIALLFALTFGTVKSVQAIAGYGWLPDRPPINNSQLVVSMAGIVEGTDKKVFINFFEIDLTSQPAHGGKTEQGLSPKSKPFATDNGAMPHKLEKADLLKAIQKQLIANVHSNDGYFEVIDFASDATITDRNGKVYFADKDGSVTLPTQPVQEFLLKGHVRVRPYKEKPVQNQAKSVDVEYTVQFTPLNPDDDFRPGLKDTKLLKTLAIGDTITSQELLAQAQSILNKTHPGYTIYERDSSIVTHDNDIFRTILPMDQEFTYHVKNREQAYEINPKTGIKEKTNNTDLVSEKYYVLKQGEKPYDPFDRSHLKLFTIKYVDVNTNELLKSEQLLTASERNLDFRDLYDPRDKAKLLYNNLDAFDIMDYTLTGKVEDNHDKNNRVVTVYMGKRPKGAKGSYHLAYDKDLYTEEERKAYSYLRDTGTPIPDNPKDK

[6] = biological target: T4, Small ubiquitin-related modifier 1 (Homo sapiens, UniProt P63165); test: SUMO1 protein interaction blockers, potency – biochemical, fluorescence polarization, uHTS hits, dose response (AID 624382); format: functional; conditions: read-out: IC50_Mean
T4 sequence (P63165 whole entry): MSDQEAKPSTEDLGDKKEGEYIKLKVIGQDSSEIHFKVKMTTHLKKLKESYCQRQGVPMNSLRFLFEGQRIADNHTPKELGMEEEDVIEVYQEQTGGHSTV

[7] = biological target: T4, Small ubiquitin-related modifier 1; test: SUMO1 protein-protein binding blockers, potency – biochemical, FRET, dose response (AID 624383); format: functional; conditions: read-out: IC50_Mean
Streptococcus = test: GAS UMAA2166 growth inhibition – luminescence, BacTiterGlo, counter-screen for streptokinase expression inhibitor project, dose response (AID 1915); format: functional, organism-based;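 note: potency for reduction of bacterial viability or growth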
[8] = biological target: Histone-lysine N-methyltransferase NSD2 (Homo sapiens, UniProt O96028); format: biochemical
Chain of Histone-lysine N-methyltransferase NSD2 (O96028 whole entry): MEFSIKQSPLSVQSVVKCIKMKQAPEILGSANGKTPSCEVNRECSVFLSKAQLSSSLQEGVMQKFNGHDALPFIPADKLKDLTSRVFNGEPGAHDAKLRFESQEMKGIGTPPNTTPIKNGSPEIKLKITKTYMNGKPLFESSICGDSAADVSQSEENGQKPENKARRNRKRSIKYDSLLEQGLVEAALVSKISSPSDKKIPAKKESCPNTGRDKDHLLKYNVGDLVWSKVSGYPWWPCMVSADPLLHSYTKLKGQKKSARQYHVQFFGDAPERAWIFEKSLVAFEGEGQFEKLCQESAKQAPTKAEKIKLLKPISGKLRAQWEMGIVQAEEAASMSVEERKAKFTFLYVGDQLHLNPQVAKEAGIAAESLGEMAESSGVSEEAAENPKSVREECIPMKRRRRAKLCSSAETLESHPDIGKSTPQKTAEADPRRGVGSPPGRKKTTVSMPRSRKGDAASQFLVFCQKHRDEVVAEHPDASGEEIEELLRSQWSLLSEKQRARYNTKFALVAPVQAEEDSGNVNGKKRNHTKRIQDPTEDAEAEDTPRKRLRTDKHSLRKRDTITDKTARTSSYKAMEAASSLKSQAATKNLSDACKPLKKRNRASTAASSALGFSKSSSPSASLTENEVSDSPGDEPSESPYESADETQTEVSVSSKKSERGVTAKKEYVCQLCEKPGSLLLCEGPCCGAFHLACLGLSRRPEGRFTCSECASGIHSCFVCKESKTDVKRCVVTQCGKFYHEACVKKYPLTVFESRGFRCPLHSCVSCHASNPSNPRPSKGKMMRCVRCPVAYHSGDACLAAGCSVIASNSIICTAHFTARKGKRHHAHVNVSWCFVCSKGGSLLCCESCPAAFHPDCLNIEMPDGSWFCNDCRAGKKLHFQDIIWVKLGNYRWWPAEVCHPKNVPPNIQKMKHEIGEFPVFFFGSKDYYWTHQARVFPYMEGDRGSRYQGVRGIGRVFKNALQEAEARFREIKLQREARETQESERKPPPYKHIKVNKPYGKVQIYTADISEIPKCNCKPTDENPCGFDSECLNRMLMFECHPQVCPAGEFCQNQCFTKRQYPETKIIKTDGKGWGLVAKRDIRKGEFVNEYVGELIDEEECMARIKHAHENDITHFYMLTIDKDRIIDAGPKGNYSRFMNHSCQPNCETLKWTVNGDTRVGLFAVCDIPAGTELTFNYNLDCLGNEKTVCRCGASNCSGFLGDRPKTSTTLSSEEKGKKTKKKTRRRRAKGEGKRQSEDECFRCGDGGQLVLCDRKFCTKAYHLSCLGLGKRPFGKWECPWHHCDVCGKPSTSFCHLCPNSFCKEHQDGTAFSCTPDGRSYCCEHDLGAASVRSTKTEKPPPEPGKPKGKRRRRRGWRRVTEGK

H9c2 = test: cells; format: functional, cell-based; conditions: Rattus norvegicus, H9c2, Myocardium;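 note: confirmatory concentration-response retest of ultra-high-throughput screening hits for modulation of myocardial damage; cell death induced by hydrogen peroxide oxidative stress; compound pretreatment for 60 min then peroxide exposure for 2 h; potency is for protecting the cells against peroxide damage rather than for killing them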
[9] = biological target: T5, Nuclear receptor subfamily 0 group B member 1 (Homo sapiens, UniProt P51843); format: functional, cell-based;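 note: HEK293T cells transfected with SF-1 and DAX-1 plus StAR promoter luciferase reporter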
T5 sequence (P51843 whole entry): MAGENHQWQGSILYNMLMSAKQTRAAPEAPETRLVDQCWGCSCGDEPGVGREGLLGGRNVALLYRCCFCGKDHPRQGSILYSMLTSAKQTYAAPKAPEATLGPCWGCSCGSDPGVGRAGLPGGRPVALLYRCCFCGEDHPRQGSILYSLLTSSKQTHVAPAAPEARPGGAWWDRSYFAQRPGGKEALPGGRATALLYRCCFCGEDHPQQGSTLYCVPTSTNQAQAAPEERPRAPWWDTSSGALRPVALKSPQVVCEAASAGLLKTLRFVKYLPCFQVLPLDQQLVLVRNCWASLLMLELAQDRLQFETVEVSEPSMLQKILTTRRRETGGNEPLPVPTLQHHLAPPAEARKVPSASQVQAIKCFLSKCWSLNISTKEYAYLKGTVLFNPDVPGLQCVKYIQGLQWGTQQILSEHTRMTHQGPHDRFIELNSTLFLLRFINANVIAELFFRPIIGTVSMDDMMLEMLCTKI

cells [10] = format: functional, cell-based; remark: listed apart in the source
[11] = biological target: Potassium channel subfamily K member 9 (Homo sapiens, UniProt Q9NPC2); test: KCNK9 flux blockade, concentration-response – cell-based, FluxOR thallium flux, selectivity assay for TASK1 inhibitor project, SAR follow-up (AID 652211); format: functional;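 note: potency is for inhibitors of the channel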
Chain of Potassium channel subfamily K member 9 (Q9NPC2 whole entry): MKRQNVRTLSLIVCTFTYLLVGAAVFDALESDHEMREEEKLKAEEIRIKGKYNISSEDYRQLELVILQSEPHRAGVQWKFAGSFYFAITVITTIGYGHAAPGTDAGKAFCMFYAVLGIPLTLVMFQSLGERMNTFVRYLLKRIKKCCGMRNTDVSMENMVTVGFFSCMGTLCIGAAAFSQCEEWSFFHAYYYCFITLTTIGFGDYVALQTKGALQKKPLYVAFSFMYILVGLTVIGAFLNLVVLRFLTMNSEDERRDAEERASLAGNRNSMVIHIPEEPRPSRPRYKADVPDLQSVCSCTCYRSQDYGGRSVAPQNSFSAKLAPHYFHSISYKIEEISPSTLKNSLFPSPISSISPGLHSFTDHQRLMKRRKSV

[12] = biological target: SWI/SNF-related matrix-associated actin-dependent regulator of chromatin subfamily A member 2 (Homo sapiens, UniProt P51531); test: Luminescence-based cell-based high throughput dose response assay to identify activators of the function of SWI/SNF related, matrix associated, actin dependent regulator of chromatin, subfamily a, member 2 (SMARCA2, BRM).; format: functional
Chain of SWI/SNF-related matrix-associated actin-dependent regulator of chromatin subfamily A member 2 (P51531 whole entry): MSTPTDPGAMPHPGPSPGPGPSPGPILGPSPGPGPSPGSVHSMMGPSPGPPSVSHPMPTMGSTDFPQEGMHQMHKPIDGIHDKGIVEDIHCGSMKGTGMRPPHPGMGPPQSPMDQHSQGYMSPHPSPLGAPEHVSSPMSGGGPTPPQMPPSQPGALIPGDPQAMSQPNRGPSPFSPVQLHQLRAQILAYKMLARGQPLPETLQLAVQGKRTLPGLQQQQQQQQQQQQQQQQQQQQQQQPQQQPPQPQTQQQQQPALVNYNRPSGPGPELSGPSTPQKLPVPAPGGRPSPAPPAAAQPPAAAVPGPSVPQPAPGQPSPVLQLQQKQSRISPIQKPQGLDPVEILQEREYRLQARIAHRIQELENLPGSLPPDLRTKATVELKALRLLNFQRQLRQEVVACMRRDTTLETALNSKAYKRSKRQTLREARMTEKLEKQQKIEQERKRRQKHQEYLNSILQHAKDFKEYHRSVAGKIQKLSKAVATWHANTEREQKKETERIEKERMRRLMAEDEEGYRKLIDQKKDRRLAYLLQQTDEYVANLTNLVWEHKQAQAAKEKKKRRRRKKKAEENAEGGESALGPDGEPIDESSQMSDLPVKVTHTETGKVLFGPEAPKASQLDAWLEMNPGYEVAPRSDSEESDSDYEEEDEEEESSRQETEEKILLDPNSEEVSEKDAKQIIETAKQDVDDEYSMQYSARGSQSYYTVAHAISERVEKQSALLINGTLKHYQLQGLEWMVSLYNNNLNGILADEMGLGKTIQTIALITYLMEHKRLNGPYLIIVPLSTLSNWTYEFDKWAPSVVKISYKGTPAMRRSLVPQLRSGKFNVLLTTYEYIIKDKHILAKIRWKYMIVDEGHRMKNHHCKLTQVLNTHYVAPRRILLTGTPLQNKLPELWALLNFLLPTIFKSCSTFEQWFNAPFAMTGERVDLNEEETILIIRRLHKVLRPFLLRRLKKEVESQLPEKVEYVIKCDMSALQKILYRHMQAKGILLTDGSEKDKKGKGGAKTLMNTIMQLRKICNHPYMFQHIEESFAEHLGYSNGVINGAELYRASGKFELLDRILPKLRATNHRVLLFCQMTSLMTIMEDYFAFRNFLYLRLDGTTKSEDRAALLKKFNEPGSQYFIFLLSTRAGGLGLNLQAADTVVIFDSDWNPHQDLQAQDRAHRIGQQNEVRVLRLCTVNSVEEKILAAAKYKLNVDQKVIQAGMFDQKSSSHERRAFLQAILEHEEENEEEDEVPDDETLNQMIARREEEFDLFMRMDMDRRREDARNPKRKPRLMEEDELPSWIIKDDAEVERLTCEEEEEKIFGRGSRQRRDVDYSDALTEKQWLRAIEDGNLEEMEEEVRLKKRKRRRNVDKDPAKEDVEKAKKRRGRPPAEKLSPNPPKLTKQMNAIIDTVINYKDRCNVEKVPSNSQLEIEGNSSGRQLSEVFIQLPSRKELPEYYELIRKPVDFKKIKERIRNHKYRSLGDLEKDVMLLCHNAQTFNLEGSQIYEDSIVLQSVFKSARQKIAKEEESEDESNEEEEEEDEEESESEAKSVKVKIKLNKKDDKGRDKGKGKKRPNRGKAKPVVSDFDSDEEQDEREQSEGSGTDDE

[13] = Counterscreen for activators of the function of SWI/SNF related, matrix associated, actin dependent regulator of chromatin, subfamily a, member 2 (SMARCA2, BRM): Luminescence-based cell-based high throughput dose response assay to identify non-selective compounds using the VP16 reporter assay.; format: functional
[14] = biological target: T6, DNA repair protein RAD52 homolog (Homo sapiens, UniProt P43351); format: functional, biochemical
T6 sequence (P43351 whole entry): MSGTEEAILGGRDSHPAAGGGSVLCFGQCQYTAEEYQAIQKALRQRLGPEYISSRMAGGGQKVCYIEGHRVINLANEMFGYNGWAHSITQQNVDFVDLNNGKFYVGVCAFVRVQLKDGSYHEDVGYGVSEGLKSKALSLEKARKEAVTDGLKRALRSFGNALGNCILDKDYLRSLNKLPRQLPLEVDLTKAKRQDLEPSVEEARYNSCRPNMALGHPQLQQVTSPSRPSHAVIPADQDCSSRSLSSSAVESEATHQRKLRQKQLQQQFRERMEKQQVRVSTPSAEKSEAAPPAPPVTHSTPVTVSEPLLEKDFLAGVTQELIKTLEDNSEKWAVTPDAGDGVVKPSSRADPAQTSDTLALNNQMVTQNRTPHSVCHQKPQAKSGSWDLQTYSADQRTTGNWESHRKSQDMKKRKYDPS

[15] = Luminescence Cell-Based Dose Retest to Confirm Inhibitors of Cancer Stem Cells. [Related pubchem assays (depositor defined):AID2717, AID2721]; format: functional; conditions: Homo sapiens
[16] = viability loss in HeLa cells – cytotoxicity control for MgcRacGAP inhibitor project, dose response (AID 624300); format: functional
[17] = biological target: T7, Rac GTPase-activating protein 1 (Homo sapiens, UniProt Q9H0H5); test: blockers of MgcRacGAP-driven Rac1 GTP hydrolysis – biochemical, ADP Hunter fluorescence, primary and confirmatory, confirmation (AID 624330); format: functional
T7 sequence (Q9H0H5 whole entry): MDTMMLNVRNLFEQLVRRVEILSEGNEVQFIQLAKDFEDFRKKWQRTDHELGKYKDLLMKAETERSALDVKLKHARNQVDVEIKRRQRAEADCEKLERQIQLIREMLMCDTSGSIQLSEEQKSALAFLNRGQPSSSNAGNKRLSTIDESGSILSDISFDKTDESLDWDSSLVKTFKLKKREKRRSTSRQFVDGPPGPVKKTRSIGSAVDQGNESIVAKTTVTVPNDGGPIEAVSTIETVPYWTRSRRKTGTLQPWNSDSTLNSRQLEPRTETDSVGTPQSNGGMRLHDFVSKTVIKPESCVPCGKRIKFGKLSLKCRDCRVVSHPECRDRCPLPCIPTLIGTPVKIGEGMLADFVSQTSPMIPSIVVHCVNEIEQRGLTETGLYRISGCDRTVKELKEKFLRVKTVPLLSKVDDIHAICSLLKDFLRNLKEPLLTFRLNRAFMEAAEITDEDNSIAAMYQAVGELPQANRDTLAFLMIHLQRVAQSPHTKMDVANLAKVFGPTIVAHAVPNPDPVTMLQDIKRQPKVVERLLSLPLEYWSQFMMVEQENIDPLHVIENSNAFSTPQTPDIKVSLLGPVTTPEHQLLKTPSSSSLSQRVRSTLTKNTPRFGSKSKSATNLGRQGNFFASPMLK

With c1ccc2c3c([nH]c2c1)CCNC3 the EC50 (cells [1]) was > 29.9 µM (inactive), the EC50 [2] was 0.412 µM (active) and the EC50 [3] was > 260 µM (inactive). For the same molecule, the IC50 [4] was 1.77 µM (active) and the IC50 (cells [5]) was > 29.9 µM (inactive).

For O=C(C[C@H]1C(=O)N(Cc2ccccc2)C[C@@H]1Cc1ccccc1)Nc1ccc(Br)cc1, the AC50 (Vero) was 31.4 µM (active).

With COc1cccc(N2CN(CCc3ccccc3)CN=C2S)c1 the EC50 (cells [1]) was > 29.9 µM (inactive), the EC50 [2] was 0.758 µM (active) and the IC50 [4] was 3.52 µM (active). For the same molecule, the IC50 (cells [5]) was > 29.9 µM (inactive).

With O=C(Nc1cccc(-c2nc3ccccc3[nH]2)c1)c1ccc(C(=O)Nc2cccc(-c3nc4ccccc4[nH]3)c2)cc1 the EC50 (Streptokinase A) was > 150 µM (not active), the IC50 [6] was > 66.6 µM (inactive) and the IC50 [7] was 6.29 µM (active). For the same molecule, the EC50 (Streptococcus) was 61.9 µM (active).

In the case of O=C(CN1CCN(S(=O)(=O)c2ccc(Br)cc2)CC1)c1ccc(O)c(O)c1, the AC50 [8] was 8.3 µM (active) and the IC50 (H9c2) was > 79 µM (inactive).

In the case of Cc1cc(C)c2nc(NC(=O)c3ccco3)sc2c1, the IC50 [9] was > 0.278 µM (active) and the IC50 (cells [10]) was > 67.5 µM (inactive).

For CN(C(=O)C1CCC(=O)N(Cc2cccc(F)c2)C1)C1CCCCC1 (configuration not stated), the IC50 [9] was > 67.6 µM (inactive) and the IC50 (cells [10]) was > 67.6 µM (inactive).

For Cc1cccc(C(=O)Nc2cccc(NC(=O)c3cccc(C)c3)c2)c1, the IC50 [11] was 0.99 µM (active).

For Cn1ccc(C(=O)N/N=C/c2c[nH]c3ccccc23)n1, the EC50 [12] was > 91.2 µM (inactive) and the EC50 [13] was > 91.2 µM (inactive).

In the case of COc1ccc(-c2nc3c(C(=O)NCCN(C)C)cccc3c3ccccc23)cc1, the AC50 [14] was 2.89 µM (active), the EC50 [12] was > 91.2 µM (inactive) and the EC50 [13] was > 91.2 µM (inactive).

With O=C(O)c1cccc(S(=O)(=O)NNc2ccccc2C(F)(F)F)c1 the IC50 [6] was > 66.6 µM (inactive), the AC50 [15] was 10.8 µM (active) and the IC50 [7] was 9.06 µM (active).

For Fc1ccc(CNc2ccc(N3CCN(Cc4ccccc4)CC3)cc2)cc1, the CC50 [16] was 98.7 µM (active) and the IC50 [17] was 15.4 µM (active).

With CCOc1ccccc1-c1nnc(CS(=O)(=O)c2ccccc2)o1 the AC50 (Vero) was 23.9 µM (active).
